Assays:
Assay in all cases: Competitive isoTOP-ABPP in situ (fragment-treated cells)
Type in all cases: cell-based
[1] = target: T1, cysteines in MDA-MB-231 and Ramos cells (Homo sapiens, UniProt P10599); details: 200 μM, insitu
T1 sequence (P10599 1-105): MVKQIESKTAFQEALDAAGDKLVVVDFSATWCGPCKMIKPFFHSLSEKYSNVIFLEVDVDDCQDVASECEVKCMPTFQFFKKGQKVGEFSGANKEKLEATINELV

[2] = target: T2, cysteines in MDA-MB-231 and Ramos cells (Homo sapiens, UniProt P04183); details: 200 μM, insitu
T2 sequence (P04183 1-234): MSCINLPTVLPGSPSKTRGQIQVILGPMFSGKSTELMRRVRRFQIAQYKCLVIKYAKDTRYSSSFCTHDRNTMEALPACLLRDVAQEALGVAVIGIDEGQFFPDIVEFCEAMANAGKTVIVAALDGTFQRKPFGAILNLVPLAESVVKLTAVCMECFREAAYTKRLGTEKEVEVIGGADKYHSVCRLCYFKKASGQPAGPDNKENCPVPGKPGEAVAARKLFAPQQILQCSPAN

[3] = target: cysteines in MDA-MB-231 and Ramos cells (Homo sapiens, UniProt Q13526); details: 200 μM, insitu
[4] = target: T3, cysteines in MDA-MB-231 and Ramos cells (Homo sapiens, UniProt Q13162); details: 200 μM, insitu
T3 sequence (Q13162 38-271): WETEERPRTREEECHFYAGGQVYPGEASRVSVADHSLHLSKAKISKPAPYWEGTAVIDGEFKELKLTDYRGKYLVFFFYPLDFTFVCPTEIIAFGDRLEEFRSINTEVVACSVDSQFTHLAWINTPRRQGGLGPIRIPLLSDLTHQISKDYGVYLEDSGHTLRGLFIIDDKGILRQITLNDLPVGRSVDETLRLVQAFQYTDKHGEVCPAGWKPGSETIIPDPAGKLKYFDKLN

[5] = target: T4, cysteines in MDA-MB-231 and Ramos cells (Homo sapiens, UniProt Q99757); details: 200 μM, insitu
T4 sequence (Q99757 60-166): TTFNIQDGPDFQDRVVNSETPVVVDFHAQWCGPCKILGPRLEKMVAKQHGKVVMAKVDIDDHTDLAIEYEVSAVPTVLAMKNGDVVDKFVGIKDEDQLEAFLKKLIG

[6] = target: T5, cysteines in MDA-MB-231 and Ramos cells (Homo sapiens, UniProt Q9BTA9); details: 200 μM, insitu
T5 sequence (Q9BTA9 1-647): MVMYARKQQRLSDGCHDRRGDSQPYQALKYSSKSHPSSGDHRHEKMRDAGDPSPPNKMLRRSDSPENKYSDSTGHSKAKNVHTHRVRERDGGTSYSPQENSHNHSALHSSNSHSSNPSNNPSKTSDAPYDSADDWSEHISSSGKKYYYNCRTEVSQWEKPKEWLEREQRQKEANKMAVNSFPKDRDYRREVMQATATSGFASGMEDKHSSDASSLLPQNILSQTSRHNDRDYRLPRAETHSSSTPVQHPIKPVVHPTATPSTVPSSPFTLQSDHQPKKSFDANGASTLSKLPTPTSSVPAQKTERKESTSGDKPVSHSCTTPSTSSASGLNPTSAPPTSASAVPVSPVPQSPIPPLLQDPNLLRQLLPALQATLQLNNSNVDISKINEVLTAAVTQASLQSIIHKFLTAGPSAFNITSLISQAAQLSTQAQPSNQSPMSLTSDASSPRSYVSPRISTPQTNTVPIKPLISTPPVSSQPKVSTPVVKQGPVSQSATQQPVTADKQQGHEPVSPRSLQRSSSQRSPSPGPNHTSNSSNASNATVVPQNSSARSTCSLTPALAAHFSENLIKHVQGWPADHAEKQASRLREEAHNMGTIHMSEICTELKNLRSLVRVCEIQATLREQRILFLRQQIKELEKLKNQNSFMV

[7] = target: cysteines in MDA-MB-231 and Ramos cells (Homo sapiens, UniProt Q9NYL2); details: 200 μM, insitu
[8] = target: cysteines in MDA-MB-231 and Ramos cells (Homo sapiens, UniProt Q15021); details: 200 μM, insitu
[9] = target: T6, cysteines in MDA-MB-231 and Ramos cells (Homo sapiens, UniProt P11216); details: 200 μM, insitu, 231
T6 sequence (P11216 1-843): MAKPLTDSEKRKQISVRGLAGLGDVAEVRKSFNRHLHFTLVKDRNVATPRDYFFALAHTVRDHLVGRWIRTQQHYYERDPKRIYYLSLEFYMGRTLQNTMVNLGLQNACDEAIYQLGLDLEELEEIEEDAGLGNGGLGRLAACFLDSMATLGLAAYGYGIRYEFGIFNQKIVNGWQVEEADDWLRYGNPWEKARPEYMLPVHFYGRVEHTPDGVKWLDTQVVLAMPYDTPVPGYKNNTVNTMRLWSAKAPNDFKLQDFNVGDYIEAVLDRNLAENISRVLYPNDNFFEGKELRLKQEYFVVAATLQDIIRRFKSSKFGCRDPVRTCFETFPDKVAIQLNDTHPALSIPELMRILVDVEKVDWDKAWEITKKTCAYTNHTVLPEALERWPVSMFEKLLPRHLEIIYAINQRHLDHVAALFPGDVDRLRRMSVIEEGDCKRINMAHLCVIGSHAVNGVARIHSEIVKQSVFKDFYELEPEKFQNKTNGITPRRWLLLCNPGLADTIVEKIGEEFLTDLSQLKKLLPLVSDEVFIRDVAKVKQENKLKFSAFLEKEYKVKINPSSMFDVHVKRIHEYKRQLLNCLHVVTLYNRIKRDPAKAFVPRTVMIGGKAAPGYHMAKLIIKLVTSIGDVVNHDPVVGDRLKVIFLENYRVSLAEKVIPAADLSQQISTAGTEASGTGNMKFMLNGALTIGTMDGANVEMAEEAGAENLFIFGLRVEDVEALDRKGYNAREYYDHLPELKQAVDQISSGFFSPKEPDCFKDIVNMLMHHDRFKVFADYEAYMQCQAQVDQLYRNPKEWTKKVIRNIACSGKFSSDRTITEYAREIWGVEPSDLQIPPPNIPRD

[10] = target: cysteines in MDA-MB-231 and Ramos cells (Homo sapiens, UniProt Q93009); details: 200 μM, insitu
Chain of cysteines in MDA-MB-231 and Ramos cells (Homo sapiens, UniProt Q93009) (Q93009 whole entry): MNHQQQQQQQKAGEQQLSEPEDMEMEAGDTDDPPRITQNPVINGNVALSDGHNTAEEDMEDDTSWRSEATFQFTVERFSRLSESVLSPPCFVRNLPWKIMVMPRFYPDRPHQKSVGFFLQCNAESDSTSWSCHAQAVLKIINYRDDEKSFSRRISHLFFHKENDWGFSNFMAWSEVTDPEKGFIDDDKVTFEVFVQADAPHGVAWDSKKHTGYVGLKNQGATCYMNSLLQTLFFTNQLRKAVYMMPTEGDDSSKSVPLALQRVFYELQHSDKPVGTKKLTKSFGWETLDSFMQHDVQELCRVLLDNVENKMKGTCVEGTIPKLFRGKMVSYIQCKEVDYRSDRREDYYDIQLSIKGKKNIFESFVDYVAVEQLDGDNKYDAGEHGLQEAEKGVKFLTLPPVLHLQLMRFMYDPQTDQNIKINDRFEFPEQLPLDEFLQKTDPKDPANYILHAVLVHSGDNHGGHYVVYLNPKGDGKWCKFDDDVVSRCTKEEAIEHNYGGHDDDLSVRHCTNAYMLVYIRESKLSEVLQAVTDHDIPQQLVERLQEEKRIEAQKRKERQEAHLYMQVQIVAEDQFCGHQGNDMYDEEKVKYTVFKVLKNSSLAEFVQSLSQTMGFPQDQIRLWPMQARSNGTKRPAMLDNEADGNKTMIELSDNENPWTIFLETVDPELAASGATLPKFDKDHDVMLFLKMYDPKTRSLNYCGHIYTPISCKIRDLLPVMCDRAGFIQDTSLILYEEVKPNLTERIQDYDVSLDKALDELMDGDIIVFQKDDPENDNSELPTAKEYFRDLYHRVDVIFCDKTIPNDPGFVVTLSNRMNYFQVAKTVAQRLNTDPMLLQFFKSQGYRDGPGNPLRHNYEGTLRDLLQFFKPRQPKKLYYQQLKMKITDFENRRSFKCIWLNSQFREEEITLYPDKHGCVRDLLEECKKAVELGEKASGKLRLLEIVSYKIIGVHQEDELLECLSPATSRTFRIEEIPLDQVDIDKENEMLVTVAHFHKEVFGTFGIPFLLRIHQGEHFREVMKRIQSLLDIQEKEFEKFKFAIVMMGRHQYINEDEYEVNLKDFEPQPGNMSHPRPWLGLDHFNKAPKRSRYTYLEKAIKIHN

Chain of cysteines in MDA-MB-231 and Ramos cells (Homo sapiens, UniProt Q9NYL2) (Q9NYL2 whole entry): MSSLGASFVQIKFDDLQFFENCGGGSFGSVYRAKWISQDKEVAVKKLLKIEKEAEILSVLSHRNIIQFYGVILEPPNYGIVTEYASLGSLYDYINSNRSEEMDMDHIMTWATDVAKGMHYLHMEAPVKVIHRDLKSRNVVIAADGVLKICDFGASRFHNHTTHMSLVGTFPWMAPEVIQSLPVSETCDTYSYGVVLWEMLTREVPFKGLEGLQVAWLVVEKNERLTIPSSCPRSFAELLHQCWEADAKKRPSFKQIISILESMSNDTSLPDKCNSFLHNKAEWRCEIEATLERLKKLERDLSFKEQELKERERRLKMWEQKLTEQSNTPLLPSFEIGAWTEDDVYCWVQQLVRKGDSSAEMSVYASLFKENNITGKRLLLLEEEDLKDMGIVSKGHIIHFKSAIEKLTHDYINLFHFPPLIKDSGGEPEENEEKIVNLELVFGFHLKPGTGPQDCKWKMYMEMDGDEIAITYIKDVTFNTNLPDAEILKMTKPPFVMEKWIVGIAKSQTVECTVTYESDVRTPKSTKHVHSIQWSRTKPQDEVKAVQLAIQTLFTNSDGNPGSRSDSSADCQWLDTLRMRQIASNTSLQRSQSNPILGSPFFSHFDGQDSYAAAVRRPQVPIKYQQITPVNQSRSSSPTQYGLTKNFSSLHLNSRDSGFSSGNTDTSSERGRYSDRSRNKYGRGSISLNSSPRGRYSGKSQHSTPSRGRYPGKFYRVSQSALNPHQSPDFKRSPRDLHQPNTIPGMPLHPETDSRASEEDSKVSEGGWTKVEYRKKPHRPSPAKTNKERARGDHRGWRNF
Chain of cysteines in MDA-MB-231 and Ramos cells (Homo sapiens, UniProt Q13526) (Q13526 whole entry): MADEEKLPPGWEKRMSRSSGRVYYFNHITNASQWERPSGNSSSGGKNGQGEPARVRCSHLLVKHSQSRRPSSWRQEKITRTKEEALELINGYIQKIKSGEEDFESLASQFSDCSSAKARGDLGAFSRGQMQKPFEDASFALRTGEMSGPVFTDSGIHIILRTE
Chain of cysteines in MDA-MB-231 and Ramos cells (Homo sapiens, UniProt Q15021) (Q15021 whole entry): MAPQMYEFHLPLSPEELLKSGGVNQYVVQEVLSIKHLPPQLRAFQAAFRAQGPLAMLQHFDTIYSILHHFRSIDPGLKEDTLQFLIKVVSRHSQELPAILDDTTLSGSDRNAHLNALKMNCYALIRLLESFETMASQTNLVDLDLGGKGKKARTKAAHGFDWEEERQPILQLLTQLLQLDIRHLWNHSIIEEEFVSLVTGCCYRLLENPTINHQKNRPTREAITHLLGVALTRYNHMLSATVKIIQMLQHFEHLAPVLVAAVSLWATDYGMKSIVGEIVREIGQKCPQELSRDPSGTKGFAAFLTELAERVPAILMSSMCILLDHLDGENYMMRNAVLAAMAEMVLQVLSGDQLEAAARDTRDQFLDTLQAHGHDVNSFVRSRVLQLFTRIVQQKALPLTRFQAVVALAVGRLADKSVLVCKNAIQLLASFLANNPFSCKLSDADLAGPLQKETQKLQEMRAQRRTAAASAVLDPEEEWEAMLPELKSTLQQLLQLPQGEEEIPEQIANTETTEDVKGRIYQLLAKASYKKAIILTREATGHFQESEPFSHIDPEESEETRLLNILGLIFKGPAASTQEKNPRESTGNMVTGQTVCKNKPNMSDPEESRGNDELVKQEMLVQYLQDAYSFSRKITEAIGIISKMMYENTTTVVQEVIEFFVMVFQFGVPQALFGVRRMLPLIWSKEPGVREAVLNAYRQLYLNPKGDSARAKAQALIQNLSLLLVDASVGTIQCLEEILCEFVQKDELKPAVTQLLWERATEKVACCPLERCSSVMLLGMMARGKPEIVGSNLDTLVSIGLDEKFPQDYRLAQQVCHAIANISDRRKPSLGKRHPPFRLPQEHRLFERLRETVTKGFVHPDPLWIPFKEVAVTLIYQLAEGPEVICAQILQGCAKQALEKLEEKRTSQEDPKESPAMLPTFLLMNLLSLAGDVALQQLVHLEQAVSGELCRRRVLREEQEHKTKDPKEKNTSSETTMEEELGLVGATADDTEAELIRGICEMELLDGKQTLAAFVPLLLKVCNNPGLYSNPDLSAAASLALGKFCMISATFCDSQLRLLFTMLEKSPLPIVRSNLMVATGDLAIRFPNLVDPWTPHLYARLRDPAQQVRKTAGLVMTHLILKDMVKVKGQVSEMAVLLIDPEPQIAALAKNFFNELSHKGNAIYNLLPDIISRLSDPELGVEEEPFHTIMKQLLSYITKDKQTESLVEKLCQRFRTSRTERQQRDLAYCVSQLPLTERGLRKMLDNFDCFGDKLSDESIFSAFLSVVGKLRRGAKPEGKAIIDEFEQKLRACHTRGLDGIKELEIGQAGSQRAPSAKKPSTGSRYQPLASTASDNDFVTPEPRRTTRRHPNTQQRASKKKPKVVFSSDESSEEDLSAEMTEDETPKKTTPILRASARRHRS

| isoTOP-ABPP ratio P10599_C32 [1]; 231 | isoTOP-ABPP ratio Q15021_C439 [8]; 231 | isoTOP-ABPP ratio P04183_C230 [2]; 231 | isoTOP-ABPP ratio Q13526_C113 [3]; 231 | isoTOP-ABPP ratio P11216_C326 [9] | isoTOP-ABPP ratio Q93009_C223 [10]; 231 | isoTOP-ABPP ratio Q13162_C51 [4]; 231 | isoTOP-ABPP ratio Q9BTA9_C553 [6]; 231 | isoTOP-ABPP ratio Q9NYL2_C22 [7]; 231 | isoTOP-ABPP ratio Q99757_C90 [5]; 231 | Compound | further results |
| --- | --- | --- | --- | --- | --- | --- | --- | --- | --- | --- | --- |
|  |  |  |  |  |  |  |  |  |  | COc1ccc2c(c1)CCCN2C(=O)CCl [compound 2] | isoTOP-ABPP reactivity P10599_C32 TXN [1]; 231: 7.9; isoTOP-ABPP reactivity P04183_C230 TK1 [2]; 231: 1.9; isoTOP-ABPP reactivity Q13526_C113 PIN1 [3]; 231: 20.0; isoTOP-ABPP reactivity Q13162_C51 PRDX4 [4]; 231: 4.6; isoTOP-ABPP reactivity Q99757_C90 TXN2 [5]; 231: 10.1; isoTOP-ABPP reactivity Q9BTA9_0553 WAC [6]; 231: 17.6; isoTOP-ABPP reactivity Q9NYL2_C22 MUTK Mitogen-activated protein kinase MLTK [7]; 231: 5.5 |
|  |  |  |  |  |  |  |  |  |  | O=C(CCl)N1CCC(Cc2ccccc2)CC1 [compound 9] | isoTOP-ABPP reactivity P10599_C32 TXN [1]; 231: 20.0; isoTOP-ABPP reactivity Q15021_C439 NCAPD2 [8]; 231: 6.1; isoTOP-ABPP reactivity P04183_C66 TK1 [2]; 231: 7.0; isoTOP-ABPP reactivity P04183_C230 TK1 [2]; 231: 10.0; isoTOP-ABPP reactivity Q13526_C113 PIN1 [3]; 231: 3.3; isoTOP-ABPP reactivity P11216_C326 PYGB [9]: 2.6; isoTOP-ABPP reactivity Q13162_C51 PRDX4 [4]; 231: 3.3; isoTOP-ABPP reactivity Q99757_C90 TXN2 [5]; 231: 20.0; isoTOP-ABPP reactivity Q9NYL2_C22 MUTK Mitogen-activated protein kinase MLTK [7]; 231: 10.3 |
| 3.8 | 5.2 | 1.3 | 2.0 | 8.6 | 2.5 | 2.0 | 20.0 | 1.2 |  | O=C(CCl)N1CCN(S(=O)(=O)c2ccccc2F)CC1 [compound 10] | isoTOP-ABPP ratio Q13526_C113 ([3]; ramos): 1.3 |
| 20.0 | 6.7 |  | 0.6 | 3.9 | 3.1 | 1.0 |  | 0.7 | 5.0 | O=C(CCl)NC(=O)NC12CC3CC(CC(C3)C1)C2 [compound 12] |  |
| 7.9 |  | 0.7 | 0.9 | 1.3 |  |  | 1.4 | 1.3 |  | O=C(CCl)NCCc1c[nH]c2ccccc12 [compound 13] | isoTOP-ABPP ratio P10599_C32 ([1]; ramos): 4.1; isoTOP-ABPP ratio, cysteine P04183_C66 [2]; 231: 1.0; isoTOP-ABPP ratio Q13526_C113 ([3]; ramos): 1.0; isoTOP-ABPP ratio Q93009_C223 ([10]; ramos): 1.3 |
| 3.9 | 0.7 | 0.7 | 0.7 | 0.9 | 1.8 | 1.7 | 2.8 |  | 4.3 | O=C(CCl)NC12CC3CC(CC(C3)C1)C2 [compound 21] |  |
| 2.5 | 0.6 |  | 0.5 | 0.7 | 1.1 | 0.9 |  | 0.7 | 6.3 | CC(C)CCOCCNC(=O)CCl [compound 27] |  |
| 20.0 | 0.9 |  | 0.7 |  | 1.0 |  |  |  |  | COc1ccccc1OCCNC(=O)CCl [compound 28] |  |
|  |  |  |  |  |  |  |  |  |  | O=C(CCl)N1CCN(CC(=O)N2CCOCC2)CC1 [compound 29] | isoTOP-ABPP ratio P10599_C32 ([1]; ramos): 1.9; isoTOP-ABPP ratio Q15021_C439 ([8]; ramos): 1.4; isoTOP-ABPP ratio P04183_C66 ([2]; ramos): 1.6; isoTOP-ABPP ratio P04183_C230 ([2]; ramos): 1.2; isoTOP-ABPP ratio Q13526_C113 ([3]; ramos): 1.0; isoTOP-ABPP ratio Q93009_C223 ([10]; ramos): 1.0; isoTOP-ABPP ratio Q99757_C90 ([5]; ramos): 1.6; isoTOP-ABPP ratio Q9BTA9_C553 ([6]; ramos): 1.1; isoTOP-ABPP ratio Q9NYL2_C22 ([7]; ramos): 1.2 |
| 1.2 | 20.0 |  | 0.6 | 0.5 |  |  |  |  | 1.4 | C=CC(=O)N(Cc1cccnc1)c1cc(C(F)(F)F)cc(C(F)(F)F)c1 [compound 31] | isoTOP-ABPP ratio P10599_C32 ([1]; ramos): 1.7; isoTOP-ABPP ratio P04183_C66 [2]; 231: 0.7; isoTOP-ABPP ratio P04183_C230 ([2]; ramos): 2.1; isoTOP-ABPP ratio Q13526_C113 ([3]; ramos): 1.1; isoTOP-ABPP ratio Q13162_C51 ([4]; ramos): 1.3 |
| 2.1 | 1.1 | 2.8 | 1.0 | 1.2 | 0,8 | 2.4 | 1.1 |  | 3.6 | C=CC(=O)Nc1cc(F)c(N2CCN(C(=O)OC(C)(C)C)CC2)c(F)c1 [compound 38] |  |
| 0.4 | 0.8 | 0.6 | 0.6 | 0.7 |  |  | 1.0 | 0.6 | 0.5 | Cc1ccc(C=C(C#N)C(=O)NCCN2CCOCC2)cc1 [compound 41] | isoTOP-ABPP ratio P04183_C66 [2]; 231: 0.4 |
| 5.7 |  | 2.0 | 10.0 | 5.3 | 20.0 | 2.3 | 19.1 | 2.3 | 6.7 | CC1CCc2ccccc2N1C(=O)CCl (centres unmarked) [compound 45] |  |
| 13.9 | 1.1 | 0.7 | 1.4 | 0.8 | 1.0 |  | 1.2 |  | 5.0 | O=C(CCl)Nc1cccc2ncccc12 [compound 51] |  |
